Assay results from PubChem BioAssay AID248 (DTP/NCI, 2004).
Where “and” joins values, the source holds several entries; their conditions need not be identical. Equal entries are not always repeated. Inconclusive results and toxic doses are left out.

Test system: L1210 leukemia ip in BDF1 mice, survival T/C
Assay: NCI In Vivo Anticancer Drug Screen. Data for tumor model L1210 Leukemia (intraperitoneal) in B6D2F1 (BDF1) mice
Details: endpoint: mean survival time, higher = longer survival
In short: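 Survival endpoint. Drug-treated group vs vehicle group, expressed as T divided by C. Tumor passaged by transplantation.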

[1] = dose: 100.0 mg/kg/injection, schedule: Q01DX001 (ip), vehicle: carboxymethylcellulose (CMC)
[2] = dose: 200.0 mg/kg/injection, schedule: Q01DX001 (ip), vehicle: carboxymethylcellulose (CMC)
[3] = dose: 100.0 mg/kg/injection, schedule: Q04DX003 (ip), vehicle: saline
[4] = dose: 100.0 mg/kg/injection, schedule: Q01DX001 (ip), vehicle: saline
[5] = dose: 200.0 mg/kg/injection, schedule: Q01DX001 (ip), vehicle: saline
[6] = dose: 400.0 mg/kg/injection, schedule: Q01DX001 (ip), vehicle: saline
[7] = dose: 25.0 mg/kg/injection, schedule: Q01DX009 (ip), vehicle: Klucel (hydroxypropylcellulose) (HPC)
[8] = dose: 50.0 mg/kg/injection, schedule: Q01DX009 (ip), vehicle: Klucel (hydroxypropylcellulose) (HPC)

Compound: COc1cc(N(CCCl)CCCl)c(OC)cc1C=Nc1cccc(Br)c1
- T/C (dose: 26.6 mg/kg/injection, schedule: Q01DX009 (ip), vehicle: carboxymethylcellulose (CMC)): 105 % of control
- T/C (dose: 40.0 mg/kg/injection, schedule: Q01DX009 (ip), vehicle: carboxymethylcellulose (CMC)): 96 % of control
- T/C [1]: 120 % of control
- T/C [2]: 107 % of control
- T/C (dose: 266.0 mg/kg/injection, schedule: Q01DX001 (ip), vehicle: carboxymethylcellulose (CMC)): 157 % of control

Compound: C1CCN(CCC2CCNCC2)CC1
- T/C (dose: 25.0 mg/kg/injection, schedule: Q04DX003 (ip), vehicle: saline): 97 % of control
- T/C (dose: 50.0 mg/kg/injection, schedule: Q04DX003 (ip), vehicle: saline): 97 % of control
- T/C [3]: 99 % of control and 100 % of control

Compound: S=c1cc(-c2ccccc2)ss1
- T/C (dose: 100.0 mg/kg/injection, schedule: Q01DX009 (ip), vehicle: saline with Tween-80): 98 % of control
- T/C (dose: 100.0 mg/kg/injection, schedule: Q04DX003 (ip), vehicle: saline with Tween-80): 93 % of control and 102 % of control
- T/C (dose: 200.0 mg/kg/injection, schedule: Q01DX009 (ip), vehicle: saline with Tween-80): 89 % of control
- T/C (dose: 200.0 mg/kg/injection, schedule: Q04DX003 (ip), vehicle: saline with Tween-80): 91 % of control and 100 % of control
- T/C (dose: 400.0 mg/kg/injection, schedule: Q01DX009 (ip), vehicle: saline with Tween-80): 96 % of control
- T/C (dose: 400.0 mg/kg/injection, schedule: Q04DX003 (ip), vehicle: saline with Tween-80): 96 % of control and 91 % of control

Compound: O=C(O)C1CCCN1[N+](=O)[O-] (stereo not given)
- T/C [4]: 100 % of control
- T/C [5]: 104 % of control
- T/C [6]: 110 % of control

Compound: NCc1cccn1OCc1ccccc1
- T/C [7]: 108 % of control
- T/C [8]: 108 % of control
- T/C (dose: 100.0 mg/kg/injection, schedule: Q01DX009 (ip), vehicle: Klucel (hydroxypropylcellulose) (HPC)): 152 % of control

Compound: COc1ccc(OC)c(N=CC(=O)c2ccc(C)cc2)c1
- T/C (dose: 75.0 mg/kg/injection, schedule: Q04DX003 (ip), vehicle: Klucel (hydroxypropylcellulose) (HPC)): 95 % of control
- T/C (dose: 150.0 mg/kg/injection, schedule: Q04DX003 (ip), vehicle: Klucel (hydroxypropylcellulose) (HPC)): 94 % of control
- T/C (dose: 300.0 mg/kg/injection, schedule: Q04DX003 (ip), vehicle: Klucel (hydroxypropylcellulose) (HPC)): 97 % of control

Compound: C/C=C1\CN(C(=O)C(NC(=O)C(N)C(O)C(O)COC(N)=O)C2OC(n3cc(CO)c(=O)[nH]c3=O)C(O)C2O)C1C(=O)O (stereo not given) (tested in a mixture with another compound)
- T/C [4]: 95 % of control
- T/C [5]: 106 % of control
- T/C [6]: 105 % of control

Compound: Cn1ncc2c(N)ncnc21
- T/C (dose: 6.0 mg/kg/injection, schedule: Q01DX015 (ip), vehicle: carboxymethylcellulose (CMC)): 108 % of control
- T/C (dose: 12.0 mg/kg/injection, schedule: Q01DX015 (ip), vehicle: carboxymethylcellulose (CMC)): 101 % of control
- T/C (dose: 12.5 mg/kg/injection, schedule: Q01DX009 (ip), vehicle: Klucel (hydroxypropylcellulose) (HPC)): 102 % of control
- T/C [7]: 107 % of control
- T/C (dose: 25.0 mg/kg/injection, schedule: Q01DX015 (ip), vehicle: carboxymethylcellulose (CMC)): 108 % of control
- T/C [8]: 91 % of control
- T/C (dose: 50.0 mg/kg/injection, schedule: Q01DX015 (ip), vehicle: carboxymethylcellulose (CMC)): 101 % of control
- T/C [1]: 103 % of control
- T/C [2]: 98 % of control
- T/C (dose: 400.0 mg/kg/injection, schedule: Q01DX001 (ip), vehicle: carboxymethylcellulose (CMC)): 106 % of control

Compound: COC(=O)C1=C(C)NC(=O)NC1c1ccc(N(CCCl)CCCl)c(OC)c1 (stereo not given)
- T/C (dose: 3.0 mg/kg/injection, schedule: Q01DX009 (ip), vehicle: Klucel (hydroxypropylcellulose) (HPC)): 115 % of control
- T/C (dose: 6.0 mg/kg/injection, schedule: Q01DX009 (ip), vehicle: Klucel (hydroxypropylcellulose) (HPC)): 117 % of control
- T/C (dose: 12.0 mg/kg/injection, schedule: Q01DX009 (ip), vehicle: Klucel (hydroxypropylcellulose) (HPC)): 112 % of control
- T/C (dose: 100.0 mg/kg/injection, schedule: Q01DX001 (ip), vehicle: Klucel (hydroxypropylcellulose) (HPC)): 109 % of control

Compound: Nc1cccc(S(=O)(=O)N(CCO)CCO)c1
- T/C [3]: 90 % of control
- T/C (dose: 200.0 mg/kg/injection, schedule: Q04DX003 (ip), vehicle: saline): 95 % of control
- T/C (dose: 400.0 mg/kg/injection, schedule: Q04DX003 (ip), vehicle: saline): 94 % of control

Compound: CC(=O)Nc1ccc[n+](Cc2ccc(S(=O)(=O)F)cc2)c1
- T/C (dose: 25.0 mg/kg/injection, schedule: Q04DX003 (ip), vehicle: Klucel (hydroxypropylcellulose) (HPC)): 104 % of control
- T/C (dose: 50.0 mg/kg/injection, schedule: Q04DX003 (ip), vehicle: Klucel (hydroxypropylcellulose) (HPC)): 104 % of control
